Laboratory results: US20250236617A1, “BICYCLIC TETRAHYDROTHIAZEPINE DERIVATIVES” (Hoffmann-La Roche Inc., priority 2022, published 2025)

Assays:
[1] = test system: primary human T-cells; assay: IL2 secretion measurements in CD3-stimulated T-cells; assay type: cell-based; conditions: CD3 condition; for Emax IL2 (% activation): 24 hours, 20 μM reference compound A1 = 100%; for EC50: Homo sapiens, T-cell, IL2 secretion after 24 hours, read-out: Tcell IL2 CD3 EC50
Protocol: As readouts for T-cell activation, 1L2 secretion after 24 hours and proliferation after 5 days was measured. Increases in 1L2 secretion and proliferation upon compound treatment were assessed as the % of the maximum of reference compound A1. WO 2016/139181 discloses reference compound A1 as example 70. As a counter screen and to make sure that no unwanted TCR-independent activation was triggered, PBS conditions were run for all compounds.
Expanded primary human T-cells were thawed and cultured in RPMI 1640 (Gibco, #61870-010)+5% human serum (HS, Sigma, #H3667)+1 mM Sodium Pyruvate (Gibco, #11360-039)+50 μM 2-mercaptoethanol (Gibco, #31350-010) and 1× Pen-Strep (Life Technologies, #15140122) medium at density of 2 Mio/ml for 3 hours in 5% CO2, 37° C. and 95% humidity. For coating of plates, […] or PBS++ with CD3 antibody (concentration depending on donor and determined by CD3 titrations) was added 100 μl/well to Poly-D Lysine coated 96-well plates. Plates were sealed and incubated at room temperature for 3 hours on a table-top rocking platform. After incubation, plates were washed once with PBS−− and filled with 40 μl/well culture medium only. Compounds were then added (see next section) to medium only plates. After 3 hours of culturing the T-cells, cells were filtered through a cell strainer (Miltenyi Biotech, #130-041-407), counted again and concentration was adjusted to 1.25 Mio/ml.
Cells were then seeded 80 μl/well to the 40 μl/well including dispensed compounds according to plate layout. By adding cells, compounds were further diluted 1:3, and resulting in 100 k cells/120 μl/well. After 24 hours 40 μl of supernatant was collected carefully from the top while not disturbing the cells and transferred into a round bottom 96 well plate. Collected and frozen supernatant was used for detection of IL2 using the IL-2 Human ProQuantum Immunoassay Kit (Invitrogen) or using the Human IL-2 ELISA Kit (Thermo Fisher).
(§1) Compounds were added in a 5 or 6 pt dose response with the Tecan D300e Digital Dispenser, all conditions 3 times more concentrated than the end-concentration, since cells are added afterwards (80 μl cells to 40 μl prepared medium with treatment). The DR was starting at 20 μM or 10 μM final top concentration and a dilution factor of 3.333. The positive control was the reference compound A1 that was added in a dose response as well, additionally to 3 wells of only 20 μM representing the positive stimulator control. All wells were normalized with DMSO to a final concentration of 0.6% (0.2% end-concentration).
The immunoassay is done following the manufacturer's manual (Invitrogen, #A35603). Additional information: For the immunoassay, MicroAmp™ EnduraPlate™ Optical 384-Well plates are used. Frozen supernatant is thawed and centrifuged for 5 minutes at 1000×g, both steps at 4° C. After centrifugation, required sample amount is taken from the top, and in a separate LightCycler V-bottom plate (working plate) diluted with assay dilution buffer, dilution factor depending on the PBS or CD3 condition but at least 1:3. IL-2 standard and blanks are prepared in the same V-bottom plate, standard with a range of […] (extended version). After preparation, 5 μl of sample dilutions or standard/blanks are transferred to the optical 384-well plate (assay plate) and the 10 μl reaction protocol is being followed. For measurement, the QuantStudio 12K Flex system is used. Raw data is extracted and IL-2 concentrations are calculated with the Thermo Fisher online app (apps.thermofisher.com/apps/proquantum).
ELISA is done following the manufacturer's manual (Thermo Fisher Scientific, #88-7025-88). Additional information: For the ELISA Nunc MaxiSorp 96 well plates are used. Frozen supernatant is thawed and centrifuged for 5 minutes at 1000×g, both steps at 4° C. […]

[2] = target: DGKzeta (hDGKzeta(1-928)-N-His) (Homo sapiens (Human), UniProt Q13574); assay: In vitro DGK inhibition assay, ADP-Glo (in house), DGKzeta; assay type: biochemical; conditions: DLG liposomes, 50 μM ATP, 2 nM enzyme, 1 hour reaction
Protocol: (§2) DGK α and ζ kinases use ATP to phosphorylate the substrate 1,2-dilauroyl-sn-glycerol (DLG, incorporated in the liposomes). ATP is converted to ADP as a result of this enzymatic reaction.
(§3) After the kinase reaction, an ATP-depletion reagent is added to terminate the kinase reaction and deplete any remaining ATP, leaving only ADP. Second, a detection reagent is added to simultaneously convert ADP to ATP and allow the newly synthesized ATP to be converted to light using a coupled luciferase/luciferin reaction.
(§4) Purification of both enzymes was performed as previously described by Takahashi et al., PeerJ, 2018 (Takahashi, D.; Sakane, F. Expression and purification of human diacylglycerol kinase alpha from baculovirus-infected insect cells for structural studies. PeerJ 2018, 6, No. e5449).
(§5) A concentrated liposome solution was prepared in assay buffer without DTT and BSA: 2 mM of DLG in 21 mM of total liposome (2 mM DLG/8 mM PS/11 mM PC). The reaction mixtures contain the assay buffer with a final DLG concentration of 125 uM ATP concentrations of 25 μM (for DGKA assay) or 50 μM (for DGKZ assay). The reactions were started by addition of DGK α and ζ kinases at 4 nM and 2 nM final concentrations, respectively. After 1 hour reaction, the amount of ADP formed was detected with the ADP-Glo kinase assay (Promega) according to the manufacturer instructions. Compounds were added in 11-points dose response, starting at […], 1:3 dilutions, with a final DMSO concentration of 2%. The multidrop combi was used as a liquid handler and luminescence was read with 0.5 s by the envision reader (PE).

[3] = target: DGKalpha (hDGKalpha(1-735)-N-His) (Homo sapiens (Human), UniProt P23743); assay: In vitro DGK inhibition assay, ADP-Glo (in house), DGKalpha; assay type: biochemical; conditions: DLG liposomes, 25 μM ATP, 4 nM enzyme, 1 hour reaction
Protocol: as §2, §3, §4, §5

[4] = test system: primary human T-cells; assay: T-cell proliferation assay (CellTiter-Glo); assay type: cell-based; conditions: CD3 condition; for Emax proliferation (% activation): 5 days, 20 μM reference compound A1 = 100%; for EC50: Homo sapiens, T-cell, 120 h, proliferation after 5 days, CellTiter-Glo, read-out: Tcell Proliferation CD3 EC50
Protocol: For coating of plates, PBS++ only or PBS++ with CD3 antibody (concentration depending on donor and determined by CD3 titrations) is added 100 μl/well to Poly-D Lysine coated 96-well plates. Plates are sealed and incubated at room temperature for 3 hours on a table-top rocking platform. After incubation, plates are washed once with PBS−− and filled with 40 μl/well culture medium only. Compounds are then added (see next section) to medium only plates. After 3 hours of culturing the T-cells, cells are filtered through a cell strainer (Miltenyi Biotech, #130-041-407), counted again and concentration is adjusted to 1.25 Mio/ml.
Cells are then seeded 80 μl/well to the 40 μl/well including dispensed compounds according to plate layout. By adding cells, compounds are further diluted 1:3, and resulting in 100 k cells/120 μl/well. After 48 hours 40 μl of supernatant is collected carefully from the top while not disturbing the cells. Cells are assessed for proliferation 5 days later by measuring […] using CellTiterGlo (Promega).
as §1, with “The DR was starting at 20 μM or 10 μM final top concentration and a dilution factor of 3.333.” left out
After 5 days, for detection of ATP which is directly proportional to the number of cells present per well, the CellTiter-Glo® 2.0 Reagent is used. After visual control for toxicity or precipitations of the tested compounds, the plates are equilibrated to room temperature for 45 minutes. CellTiter-Glo® 2.0 Reagent is equilibrated to room temperature as well. After equilibration, an equal amount of CellTiter-Glo reagent is added to the cells (80 μl/well) with an electronic multichannel pipette. Plates are placed on a rocking platform for 15 minutes at room temperature. After incubation, the bottom of the plates is sealed with backing tape. Luminescence is measured with PHERAstar FSX (interval time 0.5 sec, gain 3000, focal height 15 mm) and exported as CSV file for analysis in Genedata screener.
Calculations and Data Reporting CD3 and PBS plates were analysed separately in Genedata Screener using Roche Normalization PCT_POS_CTRL with DMSO set as Neutral Control and 20 μM of the reference compound A1 set as Stimulator Control/100%.
For CD3 conditions EC50 and Emax of the fitted sigmoidal curve were reported. If no curve could be fitted, the EC50 was reported as blank field and the Emax was based on individual data points. […] Compounds which activate unstimulated cells (see IL2 measurements) or compounds which negatively affected viability were flagged.

Sequence of DGKzeta (hDGKzeta(1-928)-N-His) (Q13574 whole entry): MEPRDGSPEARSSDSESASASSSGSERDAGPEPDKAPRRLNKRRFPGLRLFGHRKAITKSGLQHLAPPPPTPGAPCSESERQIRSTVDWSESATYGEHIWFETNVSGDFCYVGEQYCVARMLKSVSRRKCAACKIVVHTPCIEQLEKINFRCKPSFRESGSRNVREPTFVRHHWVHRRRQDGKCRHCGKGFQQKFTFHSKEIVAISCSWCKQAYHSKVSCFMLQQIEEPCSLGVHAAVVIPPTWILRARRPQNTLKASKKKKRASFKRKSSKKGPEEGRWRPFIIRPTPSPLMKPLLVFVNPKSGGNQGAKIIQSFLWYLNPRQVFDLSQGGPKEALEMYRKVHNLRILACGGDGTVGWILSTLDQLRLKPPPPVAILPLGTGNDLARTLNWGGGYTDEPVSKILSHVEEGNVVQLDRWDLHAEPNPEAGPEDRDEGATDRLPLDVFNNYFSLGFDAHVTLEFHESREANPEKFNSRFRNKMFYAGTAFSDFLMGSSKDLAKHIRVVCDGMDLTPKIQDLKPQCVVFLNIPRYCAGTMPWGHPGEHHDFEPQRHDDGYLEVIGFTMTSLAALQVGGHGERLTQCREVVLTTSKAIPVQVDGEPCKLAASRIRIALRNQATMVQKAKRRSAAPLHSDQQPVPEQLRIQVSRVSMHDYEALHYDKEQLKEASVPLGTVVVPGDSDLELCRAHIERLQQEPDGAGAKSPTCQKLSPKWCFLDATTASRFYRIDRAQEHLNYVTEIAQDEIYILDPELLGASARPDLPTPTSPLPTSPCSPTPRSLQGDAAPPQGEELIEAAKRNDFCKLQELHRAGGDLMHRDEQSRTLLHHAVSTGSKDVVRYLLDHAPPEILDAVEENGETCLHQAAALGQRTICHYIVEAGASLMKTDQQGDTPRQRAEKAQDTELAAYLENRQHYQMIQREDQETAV
Sequence of DGKalpha (hDGKalpha(1-735)-N-His) (P23743 whole entry): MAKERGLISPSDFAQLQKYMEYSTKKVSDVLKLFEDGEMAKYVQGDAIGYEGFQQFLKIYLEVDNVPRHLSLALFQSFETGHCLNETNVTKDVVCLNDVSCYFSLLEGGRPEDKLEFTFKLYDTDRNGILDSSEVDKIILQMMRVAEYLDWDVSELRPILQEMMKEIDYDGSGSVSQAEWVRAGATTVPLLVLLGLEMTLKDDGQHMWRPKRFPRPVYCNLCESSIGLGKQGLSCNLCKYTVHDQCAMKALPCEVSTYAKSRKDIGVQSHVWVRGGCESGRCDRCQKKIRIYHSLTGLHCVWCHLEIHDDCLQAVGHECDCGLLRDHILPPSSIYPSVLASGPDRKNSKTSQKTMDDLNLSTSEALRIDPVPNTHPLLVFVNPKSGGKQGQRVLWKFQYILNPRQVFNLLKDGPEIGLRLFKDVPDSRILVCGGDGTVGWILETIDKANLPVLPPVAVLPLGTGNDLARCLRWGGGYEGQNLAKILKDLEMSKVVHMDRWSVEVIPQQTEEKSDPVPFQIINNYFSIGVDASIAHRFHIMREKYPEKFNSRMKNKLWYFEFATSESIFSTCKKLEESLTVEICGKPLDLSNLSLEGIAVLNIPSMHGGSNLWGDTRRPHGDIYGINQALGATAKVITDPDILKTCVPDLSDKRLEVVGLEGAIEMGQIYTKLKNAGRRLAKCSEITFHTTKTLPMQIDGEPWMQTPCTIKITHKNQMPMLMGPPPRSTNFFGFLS

SMILES | EC50 [1] [µM] | IC50 [2] [µM] | IC50 [3] [µM] | Emax IL2 (% activation) [1] [% activation] | Emax proliferation (% activation) [4] [% activation] | EC50 [4] [µM]
CC(C)(C)c1cc(-c2cc3c(cc2F)S(=O)(=O)C[C@H](N)C(=O)N3Cc2ccc(-c3noc(C(F)(F)F)n3)cc2)cnn1 [Example 34, (3R)-3-amino-7-(6-tert-butylpyridazin-4-yl)-8-fluoro-1,1-dioxo-5-[[4-[5-(trifluoromethyl)-1,2,4-oxadiazol-3-yl]phenyl]methyl]-2,3-dihydro-1λ6,5-benzothiazepin-4-one] | 1.4 | 7.56 | 13.4 | 96 | 127 | 0.361
N[C@H]1CS(=O)(=O)c2cc(F)c(-c3cncc(N4CCOCC4)c3)cc2N(Cc2ccc(-c3noc(C(F)(F)F)n3)cc2)C1=O [Example 21, (3R)-3-amino-8-fluoro-1,1-diketo-7-(5-morpholino-3-pyridyl)-5-[4-[5-(trifluoromethyl)-1,2,4-oxadiazol-3-yl]benzyl]-2,3-dihydro-1λ6,5-benzothiazepin-4-one] | 6.78 | 8.77 | 31 | 131 | 140 | 3.76
CC(C)(C)c1cc(-c2cc3c(cc2F)S(=O)(=O)C[C@H](N)C(=O)N3Cc2ccc(Cl)cc2)cnn1 [Example 31, (3R)-3-amino-7-(6-tert-butylpyridazin-4-yl)-5-[(4-chlorophenyl)methyl]-8-fluoro-1,1-dioxo-2,3-dihydro-1λ6,5-benzothiazepin-4-one] | 1.09 | 3.85 | 35.2 | 80 | 112 | 0.501
N[C@H]1CS(=O)(=O)c2cc(F)c(-c3cncc(C(F)(F)F)c3)cc2N(Cc2ccc(-c3noc(C(F)(F)F)n3)cc2)C1=O [Example 24, (3R)-3-amino-8-fluoro-1,1-diketo-5-[4-[5-(trifluoromethyl)-1,2,4-oxadiazol-3-yl]benzyl]-7-[5-(trifluoromethyl)-3-pyridyl]-2,3-dihydro-1λ6,5-benzothiazepin-4-one] | 1.94 | 23.7 | 55.2 | 235 | 141 | 0.699

These reach a lower EC50 [1]. Values come first.

EC50 [1] [µM] | IC50 [2] [µM] | IC50 [3] [µM] | SMILES | Emax IL2 (% activation) [1] [% activation] | Emax proliferation (% activation) [4] [% activation] | EC50 [4] [µM]
0.327 | 2.6 | 29.1 | COc1ccc(-c2ccc(CN3C(=O)[C@@H](N)CS(=O)(=O)c4cc(F)c(-c5cncc(C(C)(C)C)c5)cc43)cc2)cc1 [Example 30, (3R)-3-amino-7-(5-tert-butyl-3-pyridyl)-8-fluoro-5-[[4-(4-methoxyphenyl)phenyl]methyl]-1,1-dioxo-2,3-dihydro-1λ6,5-benzothiazepin-4-one] | 100 | 177 | 0.333
0.997 | 6.5 | 41.2 | COc1ccc(-c2ccc(CN3C(=O)[C@@H](N)CS(=O)(=O)c4cc(F)c(-c5cncc(Cl)c5)cc43)cc2)cc1 [Example 27, (3R)-3-amino-7-(5-chloro-3-pyridyl)-8-fluoro-5-[[4-(4-methoxyphenyl)phenyl]methyl]-1,1-dioxo-2,3-dihydro-1λ6,5-benzothiazepin-4-one] | 243 | 111 | 0.308
0.453 | 13.6 | 18.8 | COc1ccc(-c2ccc(CN3C(=O)[C@@H](N)CS(=O)(=O)c4cc(F)c(-c5ccc(C(C)C)nc5)cc43)cc2)cc1 [Example 29, (3R)-3-amino-8-fluoro-7-(6-isopropyl-3-pyridyl)-5-[[4-(4-methoxyphenyl)phenyl]methyl]-1,1-dioxo-2,3-dihydro-1λ6,5-benzothiazepin-4-one] | 110 | 38 | 0.071
